{
  "source": "patent US5599789A",
  "about": "“Method for the treatment of tumours and sarcomas” (Amrad Corporation Limited, priority 1991, dated 1997)",
  "tested_on": "Ewing's sarcoma cells (cell line A1-5) xenograft",
  "assay": "Ewing's tumour growth in SCID mice (subcutaneous xenograft)",
  "assay_type": "in vivo",
  "conditions": "for Histology of subcutaneous tumours / Mitotic figures in tumours: hLIF 20 μg/day, 18 days; for Histology of subcutaneous tumours: Haematoxylin and Eosin; for Mitotic figures in tumours: histology",
  "text": "Scid mice were obtained from the Animal Resource Centre, Willetton, Western Austarlia. All mice were aged 5-8 weeks, and were the same sex (male). Severe immunodeficiency (scid) is an autosomal recessive mutation that occurred spontaneously in the CB 17 (CB-IgH-1^b (N17F34)) congenic strain (16). In this congenic strain, the inbred BALB/c strain carried the immunoglobulin heavy-chain allele (Igh-I^b) of the C57BL/Ka strain. The SCID locus has been mapped to the centromeric end of chromosome 16 (16). These mice have defective T and B cell immunity, thus allowing for engraftment of many foreign cells. The mice were maintained in a laminar flow unit. In order to reduce the mortality from infection, the mice were kept in previously autoclaved cages, and autoclaved food and acidified water was used.\nRecombinant human LIF (hLIF) derived from E. coli (Lot 122, AMRAD Corporation Limited) was used. Recombinant mouse LIF (Lot 308, AMRAD Corporation Limited) and PBS/1% w/v BSA were used as controls for the in vivo injections.\n5-8×10^6 cloned Ewing's sarcoma cells (cell line A1-5), were injected subcutaneously into SCID mice. Tumours were scored after about 3 weeks in almost all mice at the injection site.\nTo examine the effect of heterologous and homologous LIF relative to the mammal being treated, a double blind controlled study was performed using tumour bearing SCID mice that were injected with hLIF (20 μg per mouse), mouse LIF (100 ng per mouse), or PBS/1% w/v BSA. The effective amount of hLIF was required to be higher than mLIF due to the presence of high circulating levels of a hLIF binding protein in mice (17). Eight mice were injected in each group with the majority of mice in the hLIF group surviving over 2 weeks (range 15-31 days). Tumour size was assessed using calibrated calibers, with measurements in the depth, length and width of the tumours. […] The trend for smaller tumours in hLIF treated mice was evident prior to the wasting syndrome. Although not wishing to limit the present invention to any one hypothesis as to mode of action, this phenomenon may be a manifestation of LIF toxicity in mice. In most cases, this trend was noticeable within 7 days after hLIF injections.\nHistological examination of the subcutaneous tumours was performed on all mice, as was a full necropsy.",
  "key": {"[1]": {"conditions": "hLIF 20 μg per mouse daily s.c."}},
  "note": "“Also recorded” adds a separate entry of the source.",
  "data": [
    {"substance": "LIF: recombinant human leukaemia inhibitory factor (E. coli derived) from AMRAD Corporation Limited", "values": [
      {"measurement": "Time until trend for smaller tumours was noticeable", "setting": "after hLIF injections, 20 μg per mouse, in most cases", "result": "≤ 7", "unit": "days"},
      {"measurement": "Survival of the majority of mice", "setting": "[1]", "result": "over 2 weeks"},
      {"measurement": "Tumour size compared to PBS controls", "setting": "[1]", "result": "significantly reduced in size; also recorded: significantly smaller"},
      {"measurement": "Survival range of tumour bearing mice", "setting": "hLIF 20 μg per mouse daily s.c., eight mice", "result": "15 to 31", "unit": "days"},
      {"measurement": "Histology of subcutaneous tumours", "result": "mainly composed of necrotic areas with only a small percentage of the tumour being made up of viable cells"},
      {"measurement": "Histology of subcutaneous tumours", "setting": "listed as human LIF", "result": "regressive, nectrotic tumour cells; also recorded: necrotic, regressive tumour cells"},
      {"measurement": "Mitotic figures in tumours", "result": "almost no mitotic figures"},
      {"measurement": "Mitotic figures in tumours", "setting": "listed as human LIF", "result": "lack of mitotic figures"},
      {"measurement": "Viable areas of tumours", "setting": "hLIF treated, microscopic examination", "result": "< 20", "unit": "%"}
    ]}
  ]
}
